Assay results reported in US10065941B2, “Aminotriazine derivative and pharmaceutical composition comprising the same” (Shionogi & Co., Ltd., priority 2013, dated 2018).
pIC50: −log10 of the molar value.

Each molecule was assayed against human P2X3 receptor (Homo sapiens (Human), UniProt P56373) (assay: Evaluation of human P2X3 receptor inhibitory activity (Test Example 1)). Conditions: C6BU-1 cell transfected with human P2X3 receptor gene, FLIPR 384.
Assay type: cell-based
Procedure, shortened: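 FLIPR calcium read-out: signal taken as peak fluorescence after ATP addition divided by starting fluorescence, and IC50 calculated from it. Compound added 5 min before 150 nM ATP solution (pre-dispense stock) to Fluo-3-AM-loaded C6BU-1 cells stably transfected with human P2X3; HEPES buffer pH 7.5 with probenecid.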

Sequence of human P2X3 receptor (P56373 whole entry): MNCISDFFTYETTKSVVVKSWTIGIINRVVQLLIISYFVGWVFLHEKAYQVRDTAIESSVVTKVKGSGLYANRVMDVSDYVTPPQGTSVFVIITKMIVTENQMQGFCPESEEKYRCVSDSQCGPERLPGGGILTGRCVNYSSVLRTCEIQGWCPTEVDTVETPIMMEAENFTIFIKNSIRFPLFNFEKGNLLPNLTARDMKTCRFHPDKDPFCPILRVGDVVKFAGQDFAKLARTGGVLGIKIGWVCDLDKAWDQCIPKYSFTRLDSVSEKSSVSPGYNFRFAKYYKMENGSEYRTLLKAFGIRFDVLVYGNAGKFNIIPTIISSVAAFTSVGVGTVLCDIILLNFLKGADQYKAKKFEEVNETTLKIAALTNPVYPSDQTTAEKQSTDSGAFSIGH

| SMILES | pIC50 |
| --- | --- |
| COCc1ccc(Oc2ccc(/N=c3\[nH]c(=O)n(C[C@H](C)C(=O)O)c(=O)n3Cc3ccc(Cl)cc3)cc2)nc1 [Compound I-241] | 8.10 |
| Cc1ccc(Cn2c(=O)n(C[C@H](C)C(=O)O)c(=O)[nH]/c2=N\c2ccc(Oc3ccc(CF)cn3)cc2)cc1 [Compound I-242] | 8.10 |
| C[C@@H](Cn1c(=O)[nH]/c(=N\c2ccc(Oc3ccccn3)c(Cl)c2)n(Cc2ccc(Cl)cc2)c1=O)C(=O)O [Compound I-243] | 8.15 |
| C[C@@H](Cn1c(=O)[nH]/c(=N\c2ccc(Oc3ccccn3)c(F)c2)n(C[C@H]2CC[C@H](C)CC2)c1=O)C(=O)O [Compound I-244] | 8.10 |
| COC(=O)[C@@H](C)Cn1c(=O)[nH]/c(=N\c2ccc(Oc3cccc(CO)n3)cc2)n(Cc2ccc(Cl)cc2)c1=O [Compound I-245] | 7.85 |
| COC(=O)[C@@H](C)Cn1c(=O)[nH]/c(=N\c2ccc(Oc3cccc(CO)n3)cc2)n(Cc2ccc(C)cc2)c1=O [Compound I-246] | 7.85 |
| COCc1ccc(Oc2ccc(/N=c3\[nH]c(=O)n(C[C@H](C)C(=O)OC)c(=O)n3Cc3ccc(Cl)cc3)cc2)nc1 [Compound I-247] | 8.22 |
| COCc1cccc(Oc2ccc(/N=c3\[nH]c(=O)n(C[C@H](C)C(=O)OC)c(=O)n3Cc3ccc(Cl)cc3)cc2)n1 [Compound I-249] | 7.44 |
| COCc1cccc(Oc2ccc(/N=c3\[nH]c(=O)n(C[C@H](C)C(=O)OC)c(=O)n3Cc3ccc(C)cc3)cc2)n1 [Compound I-250] | 7.51 |
| CCc1ccc(Oc2ccc(/N=c3\[nH]c(=O)n(C[C@H](C)C(=O)OC)c(=O)n3Cc3ccc(Cl)cc3)cc2)nc1 [Compound I-251] | 8.10 |
| COC(=O)[C@@H](C)Cn1c(=O)[nH]/c(=N\c2ccc(Oc3ccccn3)c(Cl)c2)n(Cc2ccc(Cl)cc2)c1=O [Compound I-252] | 7.85 |
| COCc1ccc(Oc2ccc(/N=c3\[nH]c(=O)n(C[C@H](C)C(=O)O)c(=O)n3Cc3ccc(C)cc3)cc2)nc1 [Compound I-254] | 8.22 |
| COCc1cccc(Oc2ccc(/N=c3\[nH]c(=O)n(C[C@H](C)C(=O)O)c(=O)n3Cc3ccc(Cl)cc3)cc2)n1 [Compound I-255] | 7.74 |
| COCc1cccc(Oc2ccc(/N=c3\[nH]c(=O)n(C[C@H](C)C(=O)O)c(=O)n3Cc3ccc(C)cc3)cc2)n1 [Compound I-256] | 7.54 |
| C[C@@H](Cn1c(=O)[nH]/c(=N\c2ccc(Oc3cccc(CO)n3)cc2)n(Cc2ccc(Cl)cc2)c1=O)C(=O)O [Compound I-257] | 7.80 |
| CCc1ccc(Oc2ccc(/N=c3\[nH]c(=O)n(C[C@H](C)C(=O)O)c(=O)n3Cc3ccc(Cl)cc3)cc2)nc1 [Compound I-258] | 8.40 |
| CC(=O)c1ccc(Oc2ccc(/N=c3\[nH]c(=O)n(C[C@H](C)C(=O)O)c(=O)n3Cc3ccc(Cl)cc3)cc2)nc1 [Compound I-259] | 8.30 |
| CC(=O)c1ccc(Oc2ccc(/N=c3\[nH]c(=O)n(C[C@H](C)C(=O)O)c(=O)n3Cc3ccc(C)cc3)cc2)nc1 [Compound I-260] | 8.30 |
| Cc1ccc(Cn2c(=O)n(C[C@H](C)C(=O)O)c(=O)[nH]/c2=N\c2ccc(Oc3cccc(CF)n3)cc2)cc1 [Compound I-261] | 8.10 |
| Cc1ccc(Cn2c(=O)n(C[C@H](C)C(=O)O)c(=O)[nH]/c2=N\c2ccc(Oc3ccc(C(C)O)cn3)cc2)cc1 (stereo partly shown) [Compound I-262] | 8.15 |

| SMILES | pIC50 |
| --- | --- |
| C[C@@H](Cn1c(=O)[nH]/c(=N\c2ccc(Oc3ccccn3)cc2)n(CC2CC3(CCC3)C2)c1=O)C(=O)O [Compound I-263] | 8.30 |
| C[C@@H](Cn1c(=O)[nH]/c(=N\c2ccc(Oc3ccc(F)cn3)cc2)n(CC2CC3(CCC3)C2)c1=O)C(=O)O [Compound I-264] | 8.30 |
| COC(=O)[C@@H](C)Cn1c(=O)[nH]/c(=N\c2ccc(Oc3cccc(CI)n3)cc2)n(Cc2ccc(C)cc2)c1=O [Compound I-265] | 8.00 |
| COC(=O)[C@@H](C)Cn1c(=O)[nH]/c(=N\c2ccc(Oc3cccc(CF)n3)cc2)n(Cc2ccc(C)cc2)c1=O [Compound I-266] | 8.10 |
| COC(=O)[C@@H](C)Cn1c(=O)[nH]/c(=N\c2ccc(Oc3ccc(C(C)=O)cn3)cc2)n(Cc2ccc(C)cc2)c1=O [Compound I-267] | 8.52 |
| COC(=O)[C@@H](C)Cn1c(=O)[nH]/c(=N\c2ccc(Oc3ccccn3)cc2)n(CC2CC3(CCC3)C2)c1=O [Compound I-268] | 8.52 |
| COC(=O)[C@@H](C)Cn1c(=O)[nH]/c(=N\c2ccc(Oc3ccc(F)cn3)cc2)n(CC2CC3(CCC3)C2)c1=O [Compound I-269] | 8.40 |
| CCc1ccc(Oc2ccc(/N=c3\[nH]c(=O)n(C[C@H](C)C(=O)OC)c(=O)n3Cc3ccc(C)cc3)cc2)nc1 [Compound I-270] | 8.40 |
| COC(=O)[C@@H](C)Cn1c(=O)[nH]/c(=N\c2ccc(Oc3ccccn3)cc2)n(Cc2ccc(Cl)s2)c1=O [Compound I-271] | 8.00 |
| COC(=O)[C@@H](C)Cn1c(=O)[nH]/c(=N\c2ccc(Oc3ccc(F)cn3)cc2)n(Cc2ccc(Cl)s2)c1=O [Compound I-272] | 8.10 |
| C[C@@H](Cn1c(=O)[nH]/c(=N\c2ccc(Oc3ccccn3)cc2)n(Cc2ccc(Cl)s2)c1=O)C(=O)O [Compound I-273] | 8.30 |
| C[C@@H](Cn1c(=O)[nH]/c(=N\c2ccc(Oc3ccc(F)cn3)cc2)n(Cc2ccc(Cl)s2)c1=O)C(=O)O [Compound I-274] | 8.30 |
| CCc1ccc(Oc2ccc(/N=c3\[nH]c(=O)n(C[C@H](C)C(=O)O)c(=O)n3Cc3ccc(C)cc3)cc2)nc1 [Compound I-275] | 8.40 |
| Cc1cc(/N=c2\[nH]c(=O)n(C[C@H](C)C(=O)O)c(=O)n2Cc2ccc(Cl)s2)ccc1Oc1ncccc1F [Compound I-276] | 7.72 |
| CC(C)(C)n1c(=O)[nH]/c(=N\c2ccc(Oc3ccc(-c4cccc(C(=O)O)c4)cn3)cc2)n(Cc2ccc(Cl)cc2)c1=O [Compound R-001] | 8.15 |
| COC(=O)c1cccc(-c2ccc(Oc3ccc(/N=c4\[nH]c(=O)[nH]c(=O)n4Cc4ccc(Cl)cc4)cc3)nc2)c1 [Compound R-002] | 6.44 |
| O=C(O)c1cccc(-c2ccc(Oc3ccc(/N=c4\[nH]c(=O)[nH]c(=O)n4Cc4ccc(Cl)cc4)cc3)nc2)c1 [Compound R-003] | 8.40 |
| COC(=O)c1ccc(NC(=O)c2cccc(Oc3ccc(/N=c4\[nH]c(=O)n(C)c(=O)n4C[C@H]4CC[C@H](C)CC4)cc3)n2)cc1 [Compound R-004] | 6.91 |
| CCn1c(=O)[nH]/c(=N\c2ccc(-c3ccc(C#N)cn3)cc2)n(Cc2ccc(Cl)cc2)c1=O [Compound R-005] | 6.22 |
| Cn1c(=O)[nH]/c(=N\c2ccc(Oc3cccc(C(=O)Nc4ccc(C(=O)O)cc4)n3)cc2)n(C[C@H]2CC[C@H](C)CC2)c1=O [Compound R-006] | 8.40 |

| SMILES | pIC50 |
| --- | --- |
| CCn1c(=O)nc(Nc2ccc3nc(C(C)C)oc3c2)n(Cc2ccc(Cl)cc2)c1=O [Compound R-007] | 6.52 |
| COc1nccc(Oc2ccc(/N=c3\[nH]c(=O)n([C@@H](C)[C@@H](C)C(=O)O)c(=O)n3Cc3ccc(Cl)cc3)cc2)n1 [Compound R-010] | 8.00 |
| CC(C)n1c(=O)[nH]/c(=N\c2ccc(Oc3cccc(C#N)n3)c(Cl)c2)n(Cc2ccc(Cl)cc2)c1=O [Compound R-011] | 7.31 |
| CC(C)n1c(=O)[nH]/c(=N\c2ccc(Oc3cccc(C(=O)O)n3)c(Cl)c2)n(Cc2ccc(Cl)cc2)c1=O [Compound R-012] | 8.30 |
| COC(=O)[C@@H](C)Cn1c(=O)[nH]/c(=N\c2ccc(Oc3cnc(Cl)cn3)cc2)n(Cc2ccc(Cl)cc2)c1=O [Compound R-013] | 8.22 |
| C[C@@H](Cn1c(=O)[nH]/c(=N\c2ccc(Oc3cnc(Cl)cn3)cc2)n(Cc2ccc(Cl)cc2)c1=O)C(=O)O [Compound R-014] | 8.30 |
| CCOC(=O)c1cnc(Oc2ccc(/N=c3\[nH]c(=O)n(CC)c(=O)n3Cc3ccc(Cl)cc3)cc2)c(Cl)c1 [Compound R-015, 1-(4-chlorobenzyl)-6-[4-(3-chloro-5-ethoxycarbonyl-2-pyridyloxy)phenylimino]-3-ethyl-1,3,5-triazinane-2,4-dione] | 6.98 |
| CCn1c(=O)[nH]/c(=N\c2ccc(Oc3ncc(C(=O)O)cc3Cl)cc2)n(Cc2ccc(Cl)cc2)c1=O [Compound R-016, 1-(4-chlorobenzyl)-6-[4-(3-chloro-5-hydroxycarbonyl-2-pyridyloxy)phenylimino]-3-ethyl-1,3,5-triazinane-2,4-dione] | 8.22 |
| COC(=O)[C@@H](C)Cn1c(=O)[nH]/c(=N\c2ccc(Oc3cnccn3)cc2)n(Cc2ccc(Cl)cc2)c1=O [Compound R-017] | 8.22 |
| C[C@@H](Cn1c(=O)[nH]/c(=N\c2ccc(Oc3cnccn3)cc2)n(Cc2ccc(Cl)cc2)c1=O)C(=O)O [Compound R-019] | 8.22 |
| CC(C)(Cn1c(=O)[nH]/c(=N\c2ccc(Oc3cnccn3)cc2)n(Cc2ccc(Cl)cc2)c1=O)C(=O)O [Compound R-020] | 7.89 |
| CC(C)Oc1ccc(/N=c2\[nH]c(=O)n([C@H]3C[C@H](C(=O)O)C3)c(=O)n2Cc2ccc(Cl)cc2)cc1Cl [Compound R-021] | 7.82 |
| CC(C)Oc1ccc(/N=c2\[nH]c(=O)n([C@H]3C[C@@H](C(=O)O)C3)c(=O)n2Cc2ccc(Cl)cc2)cc1Cl [Compound R-022] | 7.92 |
| CCc1oc2ccc(/N=c3\[nH]c(=O)n([C@H]4C[C@H](C(=O)O)C4)c(=O)n3Cc3ccc(Cl)cc3)cc2c1C [Compound R-023] | 7.68 |
| CCc1oc2ccc(/N=c3\[nH]c(=O)n([C@H]4C[C@@H](C(=O)O)C4)c(=O)n3Cc3ccc(Cl)cc3)cc2c1C [Compound R-024] | 7.74 |
| COC(=O)C(C)(C)Cn1c(=O)[nH]/c(=N\c2ccc(Oc3cnc(Cl)cn3)cc2)n(Cc2ccc(Cl)cc2)c1=O [Compound R-025] | 8.30 |
| COC(=O)C(C)Cn1c(=O)[nH]/c(=N\c2ccc(Oc3ccc(OC(F)F)cn3)cc2)n(Cc2ccc(Cl)cc2)c1=O (stereo not shown) [Compound R-026] | 8.10 |
| CC(C)(Cn1c(=O)[nH]/c(=N\c2ccc(Oc3cnc(Cl)cn3)cc2)n(Cc2ccc(Cl)cc2)c1=O)C(=O)O [Compound R-027] | 8.22 |
